Laboratory results taken from patent US20070059242A1, “METHODS TO IDENTIFY THERAPEUTIC AGENTS” (priority 2005, published 2007).

Assays:
THP-1 monocytes = experiment: Monocyte morphology changes (differentiation into macrophages); assay type: cell-based, human; conditions: 12.5 or 25 μM, 7 days
Procedure: THP-1 monocytes in suspension were plated in 8-well chambered slides. […] Media containing appropriate treatment compounds was replaced after 4 days. […]

J774A.1 macrophages = experiment: Uptake and localization in macrophages by fluorescence microscopy; assay type: cell-based, murine; conditions: 50 μM dansyl derivative, 5 min to 1 h; not complexed with LDL
Procedure: J774A.1 cells were plated in 8-well chambered slides (Nalge Nunc International). Cells were gently washed twice with PBS, pH 7.4 before 5 min or 1 h exposure to 50 μM dansyl derivative of cholesterol ozonation product 5d or 5e, dansyl cholesterol derivative 9c or 9d, or dansyl hydrazine diluted in media without FCS (0.05% v/v final DMSO concentration). [drawing 28] Media was removed by aspiration and cells were fixed immediately in 95% ice cold methanol for 5 min. Cells were mounted in glycerol containing Antifade reagent (Molecular Probes). Fluorescence images were documented using DeltaVision Deconvolution microscope (API, Issaquah WA) equipped with a Photometrics CH350L liquid cooled CCD camera attached to an Olympus IX—70 inverted microscope. […] All images were deconvolved using constrained iterative algorithms (10 iterations) of DeltaVision software (softWoRx, v2.5). The deconvolved images were subsequently processed using softWoRx, v2.5.
In some experiments, murine macrophage RAW 264.7 (ECACC 91062702) cells were grown in RPMI (Gibco) with 10% FCS at 37° C. with 5% CO2. For fluorescence imaging, cells were incubated on cover slips in 6-well chambered plates (Costar) for 12 h, gently washed 3 times in PBS at pH 7.4, and incubated with 50 μM dansyl derivative of cholesterol ozonation product 5d or 5e, dansyl cholesterol derivative 9c or 9d, in RPMI with 10% FCS for 5, 15, 30, and 60 min. A solution of the dansyl derivative was then added in DMSO [final DMSO, 0.05% (v/v)]. Media was removed by aspiration, and cells were washed twice with PBS, followed by fixing in paraformaldehyde (3.7% in PBS) for 10 min. Cover slips were mounted in MOWIOL 4-88 (Calbiochem). Microscopy was performed using an inverted Zeiss Axioscope 2 Plus fluorescence microscope, and images were obtained with a Zeiss Axiocam digital camera using Axiovision software (version 3.1). The data were collected using a 63× oil immersion lens and DAPI filter (excitation 360/emission 460), and images were processed with Axiovision software and Adobe software (Photoshop 6.0).

leukocyte cell lines = experiment: Cytotoxicity to leukocyte cell lines (similar procedures); assay type: cell-based
Procedure: (§1) Cytotoxicity assays. WI-L2 human B-lymphocyte line, HAAE-1 human abdominal aortic endothelial line, MH-S murine alveolar macrophage line, and J774A.1 murine tissue macrophage line were obtained from the ATCC. Human aortic endothelial cells (HAEC) and human vascular smooth muscle cells (VSMS) were obtained from Cambrex Bio Science. Jurkat E6-1T-lymphocytes were kindly provided by Dr. J. Kaye (The Scripps Research Institute). Cells were cultured in ATCC-recommended media with 10% fetal calf serum. Cells were incubated in a controlled atmosphere at 37° C., with 5 or 7% CO2. For lactate dehydrogenase (LDH) release assays, adherent cells were harvested either by addition of 0.05% trypsin/EDTA or by scraping. The cells obtained were seeded onto 96-well microtiter plates (25,000 cells/well) and allowed to recover for 24-48 h. Cells were washed gently and media replaced with fresh media containing 5% fetal calf serum. […] Cytotoxicity was then determined by measuring lactate dehydrogenase (LDH) release from cells in culture. […] 100% Cytotoxicity was defined as the maximum amount of LDH released by dead cells as shown by trypan blue exclusion, or the highest amount of LDH detected upon lysis of cells by 0.9% Triton X-100. The IC50 values were determined by comparison of the raw duplicate data for concentration versus cytotoxicity (%) to non-linear regression analysis (Hill plot) using Graphpad v3.0 software for Macintosh.

ICAM-1 = experiment: Endothelial adhesion molecule expression ELISA, ICAM-1; assay type: cell-based, human; conditions: HAAE-1, not complexed with LDL
Procedure: (§2) Endothelial cell surface adhesion molecule expression was measured by ELISA, using anti-human CD54 (ICAM-1), CD106 (VCAM-1) and CD62E (E-Selectin) antibodies (Leinco Technologies, Inc., St. Louis, Mo.). The ELISA method was modified from previously described procedures.
(§3) Cells were then incubated with antibodies to VCAM-1, E-selectin, or ICAM-1 diluted 1:400 in PBS containing 5% FCS at 37° C. for 30 min. Wells were washed two times with PBS, then incubated with horseradish peroxidase (HRP)-conjugated goat anti-mouse IgG (Southern Biotechnology Associates, Birmingham, Ala., USA) in PBS/5% FCS at 37° C. for 30 min. The wells were washed four times with PBS, then incubated with H2O2/3,3′,5,5′-tetramethyl-benzidine peroxidase substrate (Pierce Chemical, Rockford, Ill., USA) for 30 min in the dark. The reaction was stopped by adding 25 μl of 8 N H2SO4, and the plates read on a microplate reader, blanking on wells stained with only secondary antibody. Each assay was performed in triplicate and the data are reported as the mean±SEM as a percentage of the expression level of the vehicle. To study the effect of cholesterol ozonation product 5a concentration (5-50 μM) on E-selectin expression, the assay was performed in an identical fashion as described above, with each point being the mean±SEM of at least duplicate measurements.

E-selectin = experiment: Endothelial adhesion molecule expression ELISA, E-selectin; assay type: cell-based, human; conditions: HAAE-1, not complexed with LDL
Procedure: as §2, §3

VCAM-1 = experiment: Endothelial adhesion molecule expression ELISA, VCAM-1; assay type: cell-based, human; conditions: HAAE-1, not complexed with LDL
Procedure: as §2, §3

[1] = tested on: WI-L2 human B-lymphocyte line; experiment: LDH release cytotoxicity assay, WI-L2; assay type: cell-based; conditions: B-cell (WI-L2) cell line, concentration range of FIG. 6A
Procedure: as §1
The following cell lines were employed in this study: a human B-lymphocyte (WI-L2) described in Levy et al., Cancer 22, 517 (1968); a T-lymphocyte cell line (Jurkat E6.1) described in Weiss et al., J. Immunol. 133, 123 (1984); a vascular smooth muscle cell line (VSMC) and an abdominal aorta endothelial (HAEC) cell line described in Folkman et al., Proc. Natl. Acad. Sci. U.S.A. 76, 5217 (1979); a murine tissue macrophage (J774A.1) described in Ralph et al., J. Exp. Med. 143, 1528 (1976); and an alveolar macrophage cell line (MH-S) described in Mbawuike et al., J. Leukoc. Biol. 46, 119 (1989).

[2] = tested on: T-lymphocyte cell line (Jurkat E6.1); experiment: LDH release cytotoxicity assay, Jurkat; assay type: cell-based; conditions: T-cell (Jurkat) cell line, concentration range of FIG. 6B
Procedure: as §1, with “h.” for “h. Cells were washed gently and media replaced with fresh media containing 5% fetal calf serum.”, “Macintosh. […]” for “Macintosh.”

`CC(C)CCC[C@@H](C)[C@H]1CC[C@H]2[C@@H]3C(=O)C=C4C[C@@H](O)CC[C@]4(C)[C@H]3CC[C@]12C` [7-KC, 7-ketocholesterol, reference compound] was tested, and the “THP-1 cell adherence (differentiation into macrophages)” value (THP-1 monocytes) was “began to adhere after 4 days”.

With `C[C@H](CCCC(=O)NS(=O)(=O)c1cccc2c(N(C)C)cccc12)[C@H]1CCC2C3C(CC[C@@]21C)C1(C)CC[C@H](O)CC1(O)[C@@H]3C=O` (stereo partly drawn) [5e] the “uptake and localization in macrophages” value (J774A.1 macrophages) was “initial punctate cytosolic accumulation”.

In the case of `CC(C)CCC[C@@H](C)[C@H]1CCC2C3C(CC[C@@]21C)[C@@]1(C)CCC=C[C@@]1(O)[C@@H]3C=O` (stereo partly drawn) [7a, 5β-Hydroxy-B-norcholest-3-ene-6β-carboxaldehyde], the “cytotoxic to leukocyte cell lines” value (leukocyte cell lines) is reported as “cytotoxic”.

For `C[C@H](CCCC(=O)NS(=O)(=O)c1cccc2c(N(C)C)cccc12)[C@H]1CCC2C3CC=C4C[C@@H](O)CCC4(C)C3CC[C@@]21C` (stereo partly drawn) [9d, reference compound], the “uptake and localization in macrophages” value (J774A.1 macrophages) was “minimal fluorescence”.

For `CC(C)CCC[C@@H](C)[C@H]1CCC2[C@H](CC(=O)O)C([C@@]3(C)CC[C@H](O)CC3=O)CC[C@@]21C` (stereo partly drawn) [10a], the “cytotoxic to leukocyte cell lines” value (leukocyte cell lines) was “cytotoxic”.

With `CC(C)CCC[C@@H](C)[C@H]1CC[C@H]2[C@@H]3CC=C4C[C@@H](O)CC[C@]4(C)[C@H]3CC[C@]12C` [compound 3, cholesterol, reference compound] the “integrin (ICAM-1) expression” value (ICAM-1) was “no effects”, the “selectin (E-selectin) expression” value (E-selectin) was “no effects” and the “integrin (VCAM-1) expression” value (VCAM-1) was “no effects”. For the same compound, the “THP-1 cell adherence (differentiation into macrophages)” value (THP-1 monocytes) was “induced no cell adherence”, the cytotoxicity [1] was “No cytotoxicity” and the cytotoxicity [2] was “No cytotoxicity”.

For `CC(C)CCC[C@@H](C)[C@H]1CCC2C(CC=O)C([C@@]3(C)CCC=CC3=O)CC[C@@]21C` (stereo partly drawn) [6a, 5-Oxo-5,6-secocholest-3-en-6-al], the “cytotoxic to leukocyte cell lines” value (leukocyte cell lines) was “cytotoxic”.

In the case of `CC(C)CCC[C@@H](C)[C@H]1CCC2C3C(CC[C@@]21C)[C@@]1(C)CCC=C[C@@]1(O)[C@@H]3CO` (stereo partly drawn) [7c], the “cytotoxic to leukocyte cell lines” value (leukocyte cell lines) is reported as “cytotoxic”.

For `CC(C)CCC[C@@H](C)[C@H]1CCC2[C@H](CC=O)C([C@@]3(C)CCCCC(=O)O3)CC[C@@]21C` (stereo partly drawn) [11a], the “cytotoxic to leukocyte cell lines” value (leukocyte cell lines) was “cytotoxic”.

In the case of `CC(C)CCC[C@@H](C)[C@H]1CCC2C3C(C=O)=C4C=CCC[C@]4(C)C3CC[C@@]21C` (stereo partly drawn) [12a, B-norcholest-3,5-diene-6-carboxaldehyde], the “cytotoxic to leukocyte cell lines” value (leukocyte cell lines) is reported as “cytotoxic”.
